Test results: patent US20150232452A1, “NOVEL RAF KINASE INHIBITORS” (Ruga Corporation, priority 2012, published 2015)

What was measured:
[1] = test system: A375 cells (V600E activated B-RAF); assay: In vitro assay for tumor cell growth (MTT, 72 hours incubation); type: cell-based; details: Homo sapiens, A-375, 72 h, growth inhibition of A375 cells, unit inferred
Procedure: In Vitro Assays for Tumor Cell Growth
Cell lines are obtained from the American Type Tissue Culture Collection (Maryland, USA) and cultured in media containing heat-inactivated 10% fetal bovine serum. Cell cultures are also maintained in 10 U/mL penicillin, 100 μg/mL streptomycin and 2 mM glutamine. At least triplicate determinations for each individual test compound concentration are made and data is plotted as mean±standard deviation relative to the control vehicle.

[2] = molecular target: Braf V600E (recombinant V600E mutated B-RAF) (Homo sapiens, UniProt P15056, V600E); assay: In vitro assay for determining inhibition of mutant B-RAF kinase; type: biochemical; details: 10 nM recombinant V600E mutated B-RAF, 1 μM MEK (K97R) as substrate
Braf V600E (recombinant V600E mutated B-RAF), sequence (P15056 whole entry V600E): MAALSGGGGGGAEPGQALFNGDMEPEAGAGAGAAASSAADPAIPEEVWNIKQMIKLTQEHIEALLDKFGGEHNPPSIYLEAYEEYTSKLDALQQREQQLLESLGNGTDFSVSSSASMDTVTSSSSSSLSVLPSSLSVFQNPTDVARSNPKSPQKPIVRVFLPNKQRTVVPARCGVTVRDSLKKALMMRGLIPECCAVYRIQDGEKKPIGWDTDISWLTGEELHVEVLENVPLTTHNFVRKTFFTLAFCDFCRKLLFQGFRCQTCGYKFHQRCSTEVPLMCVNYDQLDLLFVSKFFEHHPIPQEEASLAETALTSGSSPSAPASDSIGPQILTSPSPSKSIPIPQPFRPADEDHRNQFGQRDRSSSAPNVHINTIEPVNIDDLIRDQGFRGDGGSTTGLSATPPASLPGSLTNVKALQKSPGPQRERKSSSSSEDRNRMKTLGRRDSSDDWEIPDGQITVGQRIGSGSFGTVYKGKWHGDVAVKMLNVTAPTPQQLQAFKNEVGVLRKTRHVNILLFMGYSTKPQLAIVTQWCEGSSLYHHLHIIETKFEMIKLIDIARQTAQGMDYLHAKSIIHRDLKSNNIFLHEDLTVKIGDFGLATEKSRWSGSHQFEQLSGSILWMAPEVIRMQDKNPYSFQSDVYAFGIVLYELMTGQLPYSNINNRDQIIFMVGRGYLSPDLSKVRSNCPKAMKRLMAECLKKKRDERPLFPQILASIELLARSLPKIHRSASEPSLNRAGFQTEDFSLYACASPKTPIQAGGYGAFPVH
Procedure: In Vitro Assay for Determining Inhibition of B-RAF Kinase or Mutant B-RAF Kinase
Solutions of varying concentrations of test compounds or vehicle are added to 10 nM recombinant V600E mutated B-RAF proteins incubated in the presence of different concentrations of ATP and 1 μM MEK (K97R) as substrate, as previously described (Wilhelm, S. M., et al., Cancer Res., 64: 7099-7109, 2004; Mason, C. S., et al., EMBO J. 18: 2137-2148, 1999; Marais, R., et al., J. Biol. Chem., 272: 4378-4383, 1997). At least triplicate determinations for each individual test compound concentration are made and data is plotted as mean±standard deviation relative to the control vehicle.

Q: For CCn1cc(-c2cccc(NC(=O)Nc3ccc(Br)cc3F)c2)c(-c2ccncc2)n1 [Example 18, 1-(4-bromo-2-fluorophenyl)-3-(3-(1-ethyl-3-(pyridin-4-yl)-1H-pyrazol-4-yl)phenyl) urea], which IC50 [1] is on record?
A: Its IC50 is 541 nM.

Q: How did the IC50 [1] turn out when CCn1cc(-c2cccc(NC(=O)Nc3ccc(C(F)(F)F)cc3)c2)c(-c2ccnc(N)n2)n1 [Example 28, 1-(3-(3-(2-aminopyrimidin-4-yl)-1-ethyl-1H-pyrazol-4-yl)phenyl)-3-(4-(trifluoromethyl)phenyl)urea] was run?
A: The IC50 was 362 nM.

Q: What about the IC50 [2] of the same molecule?
A: Its IC50 is 3.5 nM.

Q: With CCn1cc(-c2cccc(NC(=O)Nc3ccc(I)cc3)c2)c(-c2ccncc2)n1 [Example 10, 1-(3-(1-ethyl-3-(pyridin-4-yl)-1H-pyrazol-4-yl)phenyl)-3-(4-iodophenyl)urea] as the molecule, how does the IC50 [1] read?
A: The IC50 was 49 nM.

Q: What about the IC50 [2] of the same molecule?
A: The IC50 was 2.2 nM.

Q: For CCn1cc(-c2cccc(NC(=O)Nc3ccc(C(C)C)cc3)c2)c(-c2ccncc2)n1 [Example 6, 1-(3-(1-ethyl-3-(pyridin-4-yl)-1H-pyrazol-4-yl)phenyl)-3-(4-isopropylphenyl)urea], which IC50 [1] is on record?
A: Its IC50 is 449 nM.

Q: And the IC50 [2]?
A: The IC50 was 1.18 nM.

Q: For CCn1cc(-c2cccc(NC(=O)Nc3ccc(Br)c(F)c3)c2)c(-c2ccnc(N)n2)n1 [Example 27, 1-(3-(3-(2-aminopyrimidin-4-yl)-1-ethyl-1H-pyrazol-4-yl)phenyl)-3-(4-bromo-3-fluorophenyl)urea], which IC50 [1] is on record?
A: The IC50 was 571 nM.

Q: Which IC50 [1] does the source give for CCn1cc(-c2cccc(NC(=O)Nc3ccc(I)cc3F)c2)c(-c2ccncc2)n1 [Example 17, 1-(3-(1-ethyl-3-(pyridin-4-yl)-1H-pyrazol-4-yl)phenyl)-3-(2-fluoro-4-iodophenyl)urea] here?
A: The IC50 was 166 nM.

Q: Which IC50 [1] does the source give for CCn1cc(-c2cccc(NC(=O)Nc3ccc(C(C)(C)C)cc3)c2)c(-c2ccncc2)n1 [Example 4, 1-(4-(tert-butyl)phenyl)-3-(3-(1-ethyl-3-(pyridin-4-yl)-1H-pyrazol-4-yl)phenyl)urea] here?
A: The IC50 was 506 nM.

Q: And the IC50 [2]?
A: The IC50 was 6.53 nM.

Q: What does the source list for CC(C)n1cc(-c2cccc(NC(=O)Nc3ccc(C(F)(F)F)cc3)c2)c(-c2ccncc2)n1 [Example 23, 1-(3-(1-isopropyl-3-(pyridin-4-yl)-1H-pyrazol-4-yl)phenyl)-3-(4-(trifluoromethyl)phenyl)urea]?
A: IC50 [1]: 1730 nM; IC50 [2]: 6 nM

Q: Which IC50 [1] does the source give for CCn1cc(-c2cccc(NC(=O)Nc3cccc(C(F)(F)F)c3)c2)c(-c2ccncc2)n1 [Example 7, 1-(3-(1-ethyl-3-(pyridin-4-yl)-1H-pyrazol-4-yl)phenyl)-3-(3-(trifluoromethyl)phenyl)urea] here?
A: Its IC50 is 1750 nM.

Q: And the IC50 [2]?
A: Its IC50 is 4.44 nM.

Q: CCn1cc(-c2cccc(NC(=O)Nc3ccc(Br)cc3)c2)c(-c2ccncc2)n1 [Example 21, 1-(4-bromophenyl)-3-(3-(1-ethyl-3-(pyridin-4-yl)-1H-pyrazol-4-yl)phenyl)urea] was tested. Which IC50 [1] did it give?
A: Its IC50 is 85 nM.

Q: How did the IC50 [2] turn out when CCn1cc(-c2cccc(NC(=O)Nc3ccccc3Cl)c2)c(-c2ccncc2)n1 [Example 13, 1-(2-chlorophenyl)-3-(3-(1-ethyl-3-(pyridin-4-yl)-1H-pyrazol-4-yl)phenyl)urea] was run?
A: The IC50 was 58.7 nM.

Q: CC(C)(C)n1cc(-c2cccc(NC(=O)Nc3ccc(C(F)(F)F)cc3)c2)c(-c2ccncc2)n1 [Example 25, 1-(3-(1-(tert-butyl)-3-(pyridin-4-yl)-1H-pyrazol-4-yl)phenyl)-3-(4-(trifluoromethyl)phenyl)urea] was tested. Which IC50 [2] did it give?
A: The IC50 was 1600 nM.

Q: CCn1cc(-c2cccc(NC(=O)Nc3ccccc3F)c2)c(-c2ccncc2)n1 [Example 15, 1-(3-(1-ethyl-3-(pyridin-4-yl)-1H-pyrazol-4-yl)phenyl)-3-(2-fluorophenyl)urea] was tested. Which IC50 [2] did it give?
A: Its IC50 is 53.8 nM.

Q: How did the IC50 [1] turn out when CC(C)(C)c1nc(-c2ccnc(N)n2)c(-c2cccc(NC(=O)Nc3ccc(C(F)(F)F)cc3)c2F)s1 [Example 2, 1-(3-(4-(2-aminopyrimidin-4-yl)-2-(tert-butyl)thiazol-5-yl)-2-fluorophenyl)-3-(4-(trifluoromethyl)phenyl)urea] was run?
A: Its IC50 is > 10000 nM.

Q: And the IC50 [2]?
A: The IC50 was 3980 nM.

Q: What does the source list for CCn1cc(-c2cccc(NC(=O)Nc3cccc(C)c3)c2)c(-c2ccncc2)n1 [Example 11, 1-(3-(1-ethyl-3-(pyridin-4-yl)-1H-pyrazol-4-yl)phenyl)-3-(m-tolyl)urea]?
A: IC50 [1]: 3470 nM; IC50 [2]: 4.98 nM

Q: For CCn1cc(-c2cccc(NC(=O)Nc3ccc(I)c(F)c3)c2)c(-c2ccncc2)n1 [Example 19, 1-(3-(1-ethyl-3-(pyridin-4-yl)-1H-pyrazol-4-yl)phenyl)-3-(3-fluoro-4-iodophenyl)urea], which IC50 [1] is on record?
A: Its IC50 is 42 nM.

Q: How did the IC50 [1] turn out when CCn1cc(-c2cccc(NC(=O)Nc3ccc(Cl)cc3)c2)c(-c2ccncc2)n1 [Example 16, 1-(4-chlorophenyl)-3-(3-(1-ethyl-3-(pyridin-4-yl)-1H-pyrazol-4-yl)phenyl)urea] was run?
A: The IC50 was 272 nM.

Q: And the IC50 [2]?
A: The IC50 was 2.31 nM.

Q: Which IC50 [1] does the source give for CCn1cc(-c2cccc(NC(=O)Nc3ccc(C(F)(F)F)cc3)c2)c(-c2ccncc2)n1 [Example 3, 1-(3-(1-ethyl-3-(pyridin-4-yl)-1H-pyrazol-4-yl)phenyl)-3-(4-(trifluoromethyl)phenyl)urea] here?
A: The IC50 was 202 nM.

Q: And the IC50 [2]?
A: Its IC50 is 0.72 nM.

Q: With CCn1cc(-c2cccc(NC(=O)Nc3ccc(C)cc3)c2)c(-c2ccncc2)n1 [Example 5, 1-(3-(1-ethyl-3-(pyridin-4-yl)-1H-pyrazol-4-yl)phenyl)-3-(p-tolyl)urea] as the molecule, how does the IC50 [1] read?
A: The IC50 was 815 nM.

Q: And the IC50 [2]?
A: Its IC50 is 1.61 nM.

Q: How did the IC50 [1] turn out when CCn1cc(-c2cccc(NC(=O)Nc3cccc(I)c3)c2)c(-c2ccncc2)n1 [Example 20, 1-(3-(1-ethyl-3-(pyridin-4-yl)-1H-pyrazol-4-yl)phenyl)-3-(3-iodophenyl)urea] was run?
A: The IC50 was 2080 nM.

Q: With CC(C)n1cc(-c2cccc(NC(=O)Nc3ccc(I)c(F)c3)c2)c(-c2ccncc2)n1 [Example 24, 1-(3-fluoro-4-iodophenyl)-3-(3-(1-isopropyl-3-(pyridin-4-yl)-1H-pyrazol-4-yl)phenyl)urea] as the molecule, how does the IC50 [1] read?
A: Its IC50 is 233 nM.

Q: Which results are given for CCn1cc(-c2cccc(NC(=O)Nc3ccc(Cl)cc3Cl)c2)c(-c2ccncc2)n1 [Example 12, 1-(2,4-dichlorophenyl)-3-(3-(1-ethyl-3-(pyridin-4-yl)-1H-pyrazol-4-yl)phenyl)urea]?
A: IC50 [1]: 1370 nM; IC50 [2]: 6.39 nM

Q: Which results are given for CCn1cc(-c2cccc(NC(=O)Nc3ccc(F)c(C(F)(F)F)c3)c2)c(-c2ccncc2)n1 [Example 8, 1-(3-(1-ethyl-3-(pyridin-4-yl)-1H-pyrazol-4-yl)phenyl)-3-(4-fluoro-3-(trifluoromethyl)phenyl)urea]?
A: IC50 [1]: 2540 nM; IC50 [2]: 4.31 nM

Q: For CCn1cc(-c2cccc(NC(=O)Nc3cccc(F)c3)c2)c(-c2ccncc2)n1 [Example 14, 1-(3-(1-ethyl-3-(pyridin-4-yl)-1H-pyrazol-4-yl)phenyl)-3-(3-fluorophenyl)urea], which IC50 [2] is on record?
A: Its IC50 is 39.3 nM.

Q: Which IC50 [1] does the source give for CCn1cc(-c2cccc(NC(=O)Nc3ccc(Br)c(F)c3)c2)c(-c2ccncc2)n1 [Example 22, 1-(4-bromo-3-fluorophenyl)-3-(3-(1-ethyl-3-(pyridin-4-yl)-1H-pyrazol-4-yl)phenyl)urea] here?
A: The IC50 was 83 nM.

Q: With CC(C)(C)c1nc(-c2ccnc(N)n2)c(-c2cccc(NC(=O)Nc3ccc(C(F)(F)F)cc3)c2)s1 [Example 1, 1-(3-(4-(2-aminopyrimidin-4-yl)-2-(tert-butyl)thiazol-5-yl)phenyl)-3-(4-(trifluoromethyl)phenyl)urea] as the molecule, how does the IC50 [1] read?
A: The IC50 was > 10000 nM.

Q: And the IC50 [2]?
A: Its IC50 is 225 nM.

Q: Which IC50 [1] does the source give for CCn1cc(-c2cccc(NC(=O)Nc3ccc(Cl)c(C(F)(F)F)c3)c2)c(-c2ccncc2)n1 [Example 9, 1-(4-chloro-3-(trifluoromethyl)phenyl)-3-(3-(1-ethyl-3-(pyridin-4-yl)-1H-pyrazol-4-yl)phenyl)urea] here?
A: The IC50 was 1780 nM.

Q: What about the IC50 [2] of the same molecule?
A: The IC50 was 3.01 nM.
